PubChem BioAssay AID1918932 (Molecular Pharmacology Branch, DTP, NCI, 2023)
Several values for one entry are separate records, joined by “and”; a condition that tells them apart may be missing. Equal entries are not always repeated.

Tested on: 171881-019-R-J1-PDC complex spheroid viability
Assay: Anticancer human tumor 171881-019-R-J1-PDC patient-derived invasive breast carcinoma cell line growth inhibition
Conditions: for viability, T/C: stronger effect = lower value
Method in brief: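 Drug combinations with the LSD1 inhibitor iadademstat tested on tumor cells co-cultured as spheroids with endothelial cells and mesenchymal stem cells. Concentrations descended in half-log increments from clinical Cmax or 10 microM.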

[1] = curve of first compound, second compound 0.1 µM
[2] = curve of first compound, second compound 0.316 µM
[3] = curve of first compound, second compound 1 µM
[4] = curve of first compound, second compound 3.16 µM
[5] = curve of first compound, second compound 10 µM
[6] = second compound 0.1 µM, first compound 0.00949 µM
[7] = second compound 0.1 µM, first compound 0.03 µM
[8] = second compound 0.1 µM, first compound 0.0949 µM
[9] = second compound 0.1 µM, first compound 0.3 µM
[10] = second compound 0.316 µM, first compound 0.00949 µM
[11] = second compound 0.316 µM, first compound 0.03 µM
[12] = second compound 0.316 µM, first compound 0.0949 µM
[13] = second compound 0.316 µM, first compound 0.3 µM
[14] = second compound 1 µM, first compound 0.00949 µM
[15] = second compound 1 µM, first compound 0.03 µM
[16] = second compound 1 µM, first compound 0.0949 µM
[17] = second compound 1 µM, first compound 0.3 µM
[18] = second compound 3.16 µM, first compound 0.00949 µM
[19] = second compound 3.16 µM, first compound 0.03 µM
[20] = second compound 3.16 µM, first compound 0.0949 µM
[21] = second compound 3.16 µM, first compound 0.3 µM
[22] = second compound 10 µM, first compound 0.00949 µM
[23] = second compound 10 µM, first compound 0.03 µM
[24] = second compound 10 µM, first compound 0.0949 µM
[25] = second compound 10 µM, first compound 0.3 µM
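Further: spheroids exposed to agents for 7 days after 3 days growth.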

Structure (SMILES): COc1cc(C2c3cc4c(cc3C(OC3OC5COC(C)OC5C(O)C3O)C3COC(=O)C23)OCO4)cc(OC)c1O (configuration not stated) + NC1CC1c1ccc(-c2cccc(O)c2)cc1
- IC50 [1]: 753 nM
- IC50 [2]: 1010 nM
- IC50 [3]: 793 nM
- IC50 [4]: 554 nM
- IC50 [5]: 406 nM
- viability, T/C [6]: 102%
- viability, T/C [7]: 97%
- viability, T/C [8]: 74%
- viability, T/C [9]: 64%
- viability, T/C (second compound 0.1 µM, first compound 0.949 µM): 48.3%
- viability, T/C (second compound 0.1 µM, first compound 3 µM): 29.2%
- viability, T/C [10]: 105%
- viability, T/C [11]: 101%
- viability, T/C [12]: 80.8%
- viability, T/C [13]: 69.6%
- viability, T/C (second compound 0.316 µM, first compound 0.949 µM): 51.4%
- viability, T/C (second compound 0.316 µM, first compound 3 µM): 33.3%
- viability, T/C [14]: 105%
- viability, T/C [15]: 95.3%
- viability, T/C [16]: 84.9%
- viability, T/C [17]: 66.4%
- viability, T/C (second compound 1 µM, first compound 0.949 µM): 46.9%
- viability, T/C (second compound 1 µM, first compound 3 µM): 28.1%
- viability, T/C [18]: 103%
- viability, T/C [19]: 99.9%
- viability, T/C [20]: 78.7%
- viability, T/C [21]: 59%
- viability, T/C (second compound 3.16 µM, first compound 0.949 µM): 43.6%
- viability, T/C (second compound 3.16 µM, first compound 3 µM): 27.9%
- viability, T/C [22]: 84.3%
- viability, T/C [23]: 78.2%
- viability, T/C [24]: 69.1%
- viability, T/C [25]: 51.3%
- viability, T/C (second compound 10 µM, first compound 0.949 µM): 41.4%
- viability, T/C (second compound 10 µM, first compound 3 µM): 27.4%

Structure (SMILES): Nc1ncn(C2CC(O)C(CO)S2)c(=O)n1 (configuration not stated) + NC1CC1c1ccc(-c2cccc(O)c2)cc1
- IC50 [1]: 93.9 nM
- IC50 [2]: 119 nM
- IC50 [3]: 102 nM
- IC50 [4]: 99.3 nM
- IC50 [5]: 80.2 nM
- viability, T/C (second compound 0.1 µM, first compound 0.000949 µM): 101%
- viability, T/C (second compound 0.1 µM, first compound 0.003 µM): 106%
- viability, T/C [6]: 102%
- viability, T/C [7]: 75.3%
- viability, T/C [8]: 52.3%
- viability, T/C [9]: 34.4%
- viability, T/C (second compound 0.316 µM, first compound 0.000949 µM): 111%
- viability, T/C (second compound 0.316 µM, first compound 0.003 µM): 106%
- viability, T/C [10]: 101%
- viability, T/C [11]: 75.8%
- viability, T/C [12]: 56.2%
- viability, T/C [13]: 32.1%
- viability, T/C (second compound 1 µM, first compound 0.000949 µM): 108%
- viability, T/C (second compound 1 µM, first compound 0.003 µM): 95.7%
- viability, T/C [14]: 98.1%
- viability, T/C [15]: 76.8%
- viability, T/C [16]: 51.4%
- viability, T/C [17]: 30.3%
- viability, T/C (second compound 3.16 µM, first compound 0.000949 µM): 95.1%
- viability, T/C (second compound 3.16 µM, first compound 0.003 µM): 90.8%
- viability, T/C [18]: 88.7%
- viability, T/C [19]: 69.2%
- viability, T/C [20]: 52.1%
- viability, T/C [21]: 30.1%
- viability, T/C (second compound 10 µM, first compound 0.000949 µM): 75.8%
- viability, T/C (second compound 10 µM, first compound 0.003 µM): 71.8%
- viability, T/C [22]: 81.3%
- viability, T/C [23]: 61.7%
- viability, T/C [24]: 48.9%
- viability, T/C [25]: 31%

Structure (SMILES): CC1COCCN1c1cc(C2(S(C)(=N)=O)CC2)nc(-c2ccnc3[nH]ccc23)n1 (configuration not stated)
- viability, T/C (compound 0.0316 µM): 94.6% and 94.9%
- viability, T/C (compound 0.1 µM): 89.5% and 95.9%
- viability, T/C (compound 0.316 µM): 98.2% and 91.3%
- viability, T/C (compound 1 µM): 73% and 58.9%
- viability, T/C (compound 3.16 µM): 17.2% and 21.2%
- viability, T/C (compound 10 µM): 8.54% and 9.3%
- IC50 (curve of compound): 1610 nM and 1330 nM
